Measurements from PMC9570109, “Improved Trimethylangelicin Analogs for Cystic Fibrosis: Design, Synthesis and Preliminary Screening” (International Journal of Molecular Sciences, 2022).

How the values were obtained:
salmon testes DNA = test: Photoadduct formation with DNA under UVA irradiation (TLC analysis); conditions: 15 J/cm2 UVA
Description: The total energy that struck the sample was monitored by means of a radiometer (Variocontrol, Waldmann, Villingen-Schwenningen, Germany), equipped with a Variocontrol UV Sensor (Waldmann). The radiant power emitted by the UVA lamp was about […]. The samples were maintained at room temperature during irradiation.
The test compounds were dissolved in ethanol (2 mg/mL) and salmon testes DNA (Sigma-Aldrich) was dissolved in 10 mM NaCl and 1 mM EDTA solution (1.5 × 10^−3 M). Each test solution (250 μL) was added dropwise to the DNA solution (5 mL). The mixture was irradiated with 15 J/cm2 UVA light in a glass dish for 1 h. After irradiation, the DNA was precipitated with 1 M NaCl and two volumes of cold ethanol; the precipitated DNA was collected, washed with 80% ethanol, dried, and then dissolved in water. To obtain hydrolysis, the final solution was acidified with 1 M HCl, heated at 100 °C for 1 h, neutralized with NaOH and extracted three times with chloroform. Then, all of the organic layers were collected, dried under a high vacuum, and dissolved in ethanol. The hydrolyzed mixtures were separated by thin layer chromatography (TLC; F254 plates, 0.25 mm, Merck, Darmstadt, Germany) eluting with EtOAc/EtOH (9:1). The plates were analyzed with a Mineral Light Lamp VL-4LC VILBERT-LOURMAT (Vilber, Marne-la-Vallée, France).

[1] = system: Salmonella typhimurium TA97A; test: Ames mutagenicity assay, plate incorporation, TA97A; assay type: cell-based
Description: (§1) The mutagenicity assay was performed for the test compounds following the plate incorporation method with the histidine-requiring Salmonella typhimurium mutant TA97A, TA98, TA100, and TA1535 strains purchased by Molecular Toxicology Inc. (Boone, NC, USA; moltox.com). All strains (100 µL per plate of fresh overnight cultures) were checked with and without the addition of 0.5 mL of a 5% S9 exogenous metabolic activator (S9 mix). The lyophilized post-mitochondrial supernatant S9 mix (Aroclor 1254-induced, Sprague–Dawley male rat liver in 0.154 M KCl solution), commonly used for the activation of pro-mutagens in mutagenic metabolites (Molecular Toxicology, Inc., Boone, NC, USA), was stored at −80 °C before use. The concentration tested for all the samples were 5, 10, 20, 50, and 100 µL/plate from a stock solution of 500 nM. A fully grown culture of the appropriate tester strain (0.1 mL) was added to 2 mL molten top agar (0.6% agar, 0.6% NaCl, 0.5 mM L-histidine/biotin solution) at 46 °C, together with 0.1 mL of each sample solution at different concentrations, and 0.5 mL S9 mix for assays with metabolic activation. The ingredients were thoroughly mixed and poured onto minimal glucose agar plates (1.5% agar in 2% Vogel–Bonner medium E with 5% glucose solution). DMSO was used as negative a control (100 µL/plate). Positive controls were prepared as follows: 2-aminoanthracene (2 µg/plate) and 2-nitrofluorene (2 µg/plate) for TA 97A, TA98 and TA1535 with and without metabolic activator (S9 mix), respectively; 2-aminoanthracene (2 µg/plate) and sodium azide (2 µg/plate) for TA100, with and without metabolic activator (S9 mix), respectively. The plates were incubated at 37 °C for 72 h and then his+ revertants were checked and counted using a Colony Counter 560 Suntex (Antibioticos, Italy). A sample was considered mutagenic when the observed number of colonies was at least twofold over the spontaneous level of revertants. All determinations were made in triplicate. Statistical analysis: relative standard deviations were calculated using the statistical software STATISTICA 6.0 (StatSoft, Italia srl, Vigonza, Italy). […]
(§2) Salmonella typhimurium TA97A Salmonella typhimurium TA98 Salmonella typhimurium TA100 Salmonella typhimurium 1535 […]
(§3) average SD t/c average SD t/c average SD t/c average SD t/c average SD t/c average SD t/c average SD t/c average SD t/c […]
(§4) *Significant values according to Ames computation (Maron & Ames, 1983); DMSO, C+: negative and positive controls respectively; SD: Standard Deviation; t/c: number of revertant colonies in treated plates/number of revertant colonies in […]

[2] = system: Salmonella typhimurium TA98; test: Ames mutagenicity assay, plate incorporation, TA98; assay type: cell-based
Description: as §1, §2, §3, §4

[3] = system: Salmonella typhimurium TA100; test: Ames mutagenicity assay, plate incorporation, TA100; assay type: cell-based
Description: as §1, §2, §3, §4

[4] = +S9, 5 µL/plate of 500 nM stock
[5] = +S9, 10 µL/plate of 500 nM stock
[6] = +S9, 20 µL/plate of 500 nM stock
[7] = +S9, 50 µL/plate of 500 nM stock
[8] = +S9, 100 µL/plate of 500 nM stock
[9] = -S9, 5 µL/plate of 500 nM stock
[10] = -S9, 10 µL/plate of 500 nM stock
[11] = -S9, 20 µL/plate of 500 nM stock
[12] = -S9, 50 µL/plate of 500 nM stock
[13] = -S9, 100 µL/plate of 500 nM stock
[14] = TA98, +S9, 5 µL/plate of 500 nM stock
[15] = TA98, +S9, 10 µL/plate of 500 nM stock
[16] = TA98, +S9, 20 µL/plate of 500 nM stock
[17] = TA98, +S9, 50 µL/plate of 500 nM stock
[18] = TA98, +S9, 100 µL/plate of 500 nM stock
[19] = TA98, -S9, 5 µL/plate of 500 nM stock
[20] = TA98, -S9, 10 µL/plate of 500 nM stock
[21] = TA98, -S9, 20 µL/plate of 500 nM stock
[22] = TA98, -S9, 50 µL/plate of 500 nM stock
[23] = TA98, -S9, 100 µL/plate of 500 nM stock
[24] = TA100, +S9, 5 µL/plate of 500 nM stock
[25] = TA100, +S9, 10 µL/plate of 500 nM stock
[26] = TA100, +S9, 20 µL/plate of 500 nM stock
[27] = TA100, +S9, 50 µL/plate of 500 nM stock
[28] = TA100, +S9, 100 µL/plate of 500 nM stock
[29] = TA100, -S9, 5 µL/plate of 500 nM stock
[30] = TA100, -S9, 10 µL/plate of 500 nM stock
[31] = TA100, -S9, 20 µL/plate of 500 nM stock
[32] = TA100, -S9, 50 µL/plate of 500 nM stock
[33] = TA100, -S9, 100 µL/plate of 500 nM stock

## Cc1cc2c(-c3ccccc3)cc(=O)oc2c2c(C)coc12 [4-PhDMA]
Salmon testes DNA
  photoadduct formation with DNA upon UVA irradiation: only the unchanged bands
[1]; [4]
  revertant colonies, average: 87.0
  t/c (revertant colonies treated/untreated plates): 0.8
[1]; [5]
  revertant colonies, average: 117.0
  t/c (revertant colonies treated/untreated plates): 1.1
[1]; [6]
  revertant colonies, average: 98.0
  t/c (revertant colonies treated/untreated plates): 0.9
[1]; [7]
  revertant colonies, average: 94.0
  t/c (revertant colonies treated/untreated plates): 0.9
[1]; [8]
  revertant colonies, average: 109.5
  t/c (revertant colonies treated/untreated plates): 1.0
[1]; [9]
  revertant colonies, average: 79.5
  t/c (revertant colonies treated/untreated plates): 1.0
[1]; [10]
  revertant colonies, average: 82.5
  t/c (revertant colonies treated/untreated plates): 1.1
[1]; [11]
  revertant colonies, average: 82.0
  t/c (revertant colonies treated/untreated plates): 1.1
[1]; [12]
  revertant colonies, average: 82.5
  t/c (revertant colonies treated/untreated plates): 1.1
[1]; [13]
  revertant colonies, average: 82.5
  t/c (revertant colonies treated/untreated plates): 1.1
[2]; [14]
  revertant colonies, average: 47.0
  t/c (revertant colonies treated/untreated plates): 1.0
[2]; [15]
  revertant colonies, average: 49.0
  t/c (revertant colonies treated/untreated plates): 1.1
[2]; [16]
  revertant colonies, average: 52.5
  t/c (revertant colonies treated/untreated plates): 1.1
[2]; [17]
  revertant colonies, average: 47.5
  t/c (revertant colonies treated/untreated plates): 1.0
[2]; [18]
  revertant colonies, average: 47.5
  t/c (revertant colonies treated/untreated plates): 1.0
[2]; [19]
  revertant colonies, average: 39.0
  t/c (revertant colonies treated/untreated plates): 1.0
[2]; [20]
  revertant colonies, average: 42.0
  t/c (revertant colonies treated/untreated plates): 1.1
[2]; [21]
  revertant colonies, average: 38.5
  t/c (revertant colonies treated/untreated plates): 1.0
[2]; [22]
  revertant colonies, average: 41.0
  t/c (revertant colonies treated/untreated plates): 1.1
[2]; [23]
  revertant colonies, average: 41.0
  t/c (revertant colonies treated/untreated plates): 1.1
[3]; [24]
  revertant colonies, average: 159.5
  t/c (revertant colonies treated/untreated plates): 0.9
[3]; [25]
  revertant colonies, average: 193.0
  t/c (revertant colonies treated/untreated plates): 1.1
[3]; [26]
  revertant colonies, average: 193.5
  t/c (revertant colonies treated/untreated plates): 1.1
[3]; [27]
  revertant colonies, average: 187.5
  t/c (revertant colonies treated/untreated plates): 1.1
[3]; [28]
  revertant colonies, average: 197.0
  t/c (revertant colonies treated/untreated plates): 1.2
[3]; [29]
  revertant colonies, average: 208.5
  t/c (revertant colonies treated/untreated plates): 1.1
[3]; [30]
  revertant colonies, average: 198.5
  t/c (revertant colonies treated/untreated plates): 1.0
[3]; [31]
  revertant colonies, average: 207.0
  t/c (revertant colonies treated/untreated plates): 1.1
[3]; [32]
  revertant colonies, average: 184.5
  t/c (revertant colonies treated/untreated plates): 0.9
[3]; [33]
  revertant colonies, average: 179.0
  t/c (revertant colonies treated/untreated plates): 0.9

## Cc1cc(=O)oc2c1cc(-c1ccccc1)c1occ(C)c12 [6-PhDMA]
Salmon testes DNA
  photoadduct formation with DNA upon UVA irradiation: only the unchanged bands
[1]; [4]
  revertant colonies, average: 116.5
  t/c (revertant colonies treated/untreated plates): 1.1
[1]; [5]
  revertant colonies, average: 92.5
  t/c (revertant colonies treated/untreated plates): 0.8
[1]; [6]
  revertant colonies, average: 99.0
  t/c (revertant colonies treated/untreated plates): 0.9
[1]; [7]
  revertant colonies, average: 107.0
  t/c (revertant colonies treated/untreated plates): 1.0
[1]; [8]
  revertant colonies, average: 101.0
  t/c (revertant colonies treated/untreated plates): 0.9
[1]; [9]
  revertant colonies, average: 75.0
  t/c (revertant colonies treated/untreated plates): 1.0
[1]; [10]
  revertant colonies, average: 69.5
  t/c (revertant colonies treated/untreated plates): 0.9
[1]; [11]
  revertant colonies, average: 86.5
  t/c (revertant colonies treated/untreated plates): 1.1
[1]; [12]
  revertant colonies, average: 79.5
  t/c (revertant colonies treated/untreated plates): 1.0
[1]; [13]
  revertant colonies, average: 88.5
  t/c (revertant colonies treated/untreated plates): 1.1
[2]; [14]
  revertant colonies, average: 45.5
  t/c (revertant colonies treated/untreated plates): 1.0
[2]; [15]
  revertant colonies, average: 49.5
  t/c (revertant colonies treated/untreated plates): 1.1
[2]; [16]
  revertant colonies, average: 46.5
  t/c (revertant colonies treated/untreated plates): 1.0
[2]; [17]
  revertant colonies, average: 46.0
  t/c (revertant colonies treated/untreated plates): 1.0
[2]; [18]
  revertant colonies, average: 45.0
  t/c (revertant colonies treated/untreated plates): 1.0
[2]; [19]
  revertant colonies, average: 37.5
  t/c (revertant colonies treated/untreated plates): 1.0
[2]; [20]
  revertant colonies, average: 41.0
  t/c (revertant colonies treated/untreated plates): 1.1
[2]; [21]
  revertant colonies, average: 38.0
  t/c (revertant colonies treated/untreated plates): 1.0
[2]; [22]
  revertant colonies, average: 43.5
  t/c (revertant colonies treated/untreated plates): 1.1
[2]; [23]
  revertant colonies, average: 40.0
  t/c (revertant colonies treated/untreated plates): 1.0
[3]; [24]
  revertant colonies, average: 182.0
  t/c (revertant colonies treated/untreated plates): 1.1
[3]; [25]
  revertant colonies, average: 178.5
  t/c (revertant colonies treated/untreated plates): 1.0
[3]; [26]
  revertant colonies, average: 184.5
  t/c (revertant colonies treated/untreated plates): 1.1
[3]; [27]
  revertant colonies, average: 178.0
  t/c (revertant colonies treated/untreated plates): 1.0
[3]; [28]
  revertant colonies, average: 203.0
  t/c (revertant colonies treated/untreated plates): 1.2
[3]; [29]
  revertant colonies, average: 186.5
  t/c (revertant colonies treated/untreated plates): 1.0
[3]; [30]
  revertant colonies, average: 220.0
  t/c (revertant colonies treated/untreated plates): 1.1
[3]; [31]
  revertant colonies, average: 172.0
  t/c (revertant colonies treated/untreated plates): 0.9
[3]; [32]
  revertant colonies, average: 202.5
  t/c (revertant colonies treated/untreated plates): 1.0
[3]; [33]
  revertant colonies, average: 185.5
  t/c (revertant colonies treated/untreated plates): 0.9
